Laboratory results published in patent US20260293897A1, “COMPOUND CONTAINING FIVE-MEMBERED HETEROCYCLE, PREPARATION METHOD THEREFOR, AND APPLICATION THEREOF” (QINGDAO KANGQIAO PESTICIDES AND CHEMICALS GROUP CO., LTD., priority 2022, published 2026).
Like-named read-outs stand apart in the source and are kept apart here.

Columns and labels:
Assay type in all cases: in vivo
[1] = system: Phyllotreta striolata; assay: Phyllotreta striolata Controlling Activity Test; conditions: 72 h, read-out: mortality against Phyllotreta striolata
Description: Phyllotreta striolata Controlling Activity Test:
Preparing liquid medicine according to the experimental design concentration, selecting fresh cabbage leaves, soaking the cabbage leaves for 15 s, taking out, airing, placing in a glass tube, connecting 20-25 heads of the Flea beetles adults with each tube, repeating the treatment for 3 times, investigating the death condition of the Phyllotreta striolata after 72 hours, and calculating and correcting the death rate.

[2] = system: Tetranychus cinnabarinus; assay: Tetranychus cinnabarinus Controlling Activity Test; conditions: 72 h; for mortality at 1.6 ppm: read-out: mortality against Tetranychus cinnabarinus; for mortality at 1.56 ppm / mortality at 3.125 ppm / mortality at 6.25 ppm / mortality at 12.5 ppm: in Phaseolus vulgaris
Description: Tetranychus cinnabarinus Controlling Activity Test:
The test compound was dissolved in acetone and diluted to the desired concentration with 0.1 wt % aqueous tween 80, the acetone content not exceeding 5 wt %.
One real leaf was removed from kidney bean seedlings grown to two real leaves, inoculating Tetranychus cinnabarinus, investigating the base number, performing whole plant spraying treatment by using a handheld sprayer, repeating the treatment for 3 times (the application amount of the preparation is about 0.5 g), observing in a constant-temperature observation room after the treatment, investigating the number of live mites after 72 hours, and calculating the mortality. The number of Tetranychus cinnabarinus inoculated in each time is 35-100.
Mortality%=(number of inoculated insects−number of live insects after drug administration)÷number of inoculated insects×100%

[3] = system: Spodoptera frugiperda; assay: Spodoptera frugiperda Indoor Toxicity Determination Test; conditions: in Zea mays, read-out: mortality against Spodoptera frugiperda
Excerpt: Spodoptera frugiperda Indoor Toxicity Determination Test
Test targets: Spodoptera frugiperda, 3rd instar larvae, a sensitive strain raised indoors.
The test method comprises the following steps: firstly, selecting fresh corn leaves cultivated in a greenhouse, cutting the fresh corn leaves into 5 cm-long leaf segments, sequentially arranging the test design from low dose to high dose, soaking the fresh corn leaves in prepared liquid medicine for 10 s, naturally drying the fresh corn leaves in the shade, then placing the dried corn leaves in a culture dish with filter paper and the diameter of 9 cm, inoculating regular healthy test insects, n=10, repeating the treatment for 3 times, and additionally arranging blank control.

[4] = system: Sensitive Plutella xylostella; assay: Sensitive Plutella xylostella Controlling Activity Test
Excerpt: Sensitive Plutella xylostella Controlling Activity Test:
Test targets: Plutella xylostella, 3 rd instar larvae, a sensitive strain raised indoors.
The test method comprises the following steps: selecting fresh cabbage leaves cultivated in a greenhouse, making the cabbage leaves into round with the diameter of 3 cm by using a puncher, putting the circular blade into prepared liquid medicine to be soaked for 10 s according to the sequence from low dose to high dose of experimental design, naturally drying the cabbage leaves in the shade, putting the soaked cabbage leaves into a culture dish with filter paper and the diameter of 9 cm, inoculating regular healthy test insects, n=10, repeating the treatment for 3 times, and additionally setting blank control.

[5] = system: Frankliniella occidentalis larvae; assay: Frankliniella occidentalis Larva Controlling Activity Test; conditions: 72 h; for mortality at 3.25 ppm: read-out: mortality for Frankliniella occidentalis larvae; for mortality at 1.56 ppm / mortality at 3.125 ppm / mortality at 6.25 ppm: in Brassica oleracea
Description: Frankliniella occidentalis Larva Controlling Activity Test:
The test compound is dissolved in acetone and diluted to the desired concentration. 0.5 mL of the prepared acetone medicinal liquid is added into a glass tube (the inner diameter is 1 cm, the length is 10 cm), and the glass tube is repeatedly rolled on a flat table until the acetone solution is completely volatilized. Soaking cabbage leaves in the liquid medicine with the corresponding concentration for 15 s, drying, placing in a glass tube, inoculating 10-20 heads of Frankliniella occidentalis larvae in the glass tube, repeating the treatment for three times, observing in a constant-temperature observation room after the treatment, investigating the number of live insects after 72 hours, and calculating the mortality.

[6] = system: Resistant Plutella xylostella; assay: Resistant Plutella xylostella Controlling Activity Test; conditions: for Mortality (%): 0.2 ppm, 2nd instar, resistant, radish leaves dipped 10 s, 72 h (three days); for mortality at 0.2 ppm / mortality at 1 ppm / mortality at 5 ppm: Plutella xylostella, in Raphanus sativus, 72 h
Description: Resistant Plutella xylostella Controlling Activity Test:
Leaf dipping method was used, the appropriate amount of radish leaves were dipped into the drug for 10 s, placed in a plastic petri dish padded with filter paper and dried naturally, each dish was connected with 10 heads of 2nd instar small cabbage moths, placed in the observation room at 24° C. and light (16/8 h). 72 h later observation was made, and the body of the insect was touched lightly with a brush and no reaction was regarded as a dead insect, which was repeated for three times, and a blank control was also set up without any additional agent.

[7] = read-out: mortality against Plutella xylostella

Cc1cc(C2=NOC(c3cc(Cl)c(F)c(Cl)c3)(C(F)(F)F)C2)ccc1C(=O)NC1CCS(=O)(=O)C1.I (stereo not shown) [Compound I-1, 4-(5-(3,5-dichloro-4-fluorophenyl)-5-(trifluoromethyl)-4,5-dihydroisoxazol-3-yl)-N-(1,1-dioxotetrahydrothiophen-3-yl)-2-methylbenzamide]
> 90%: mortality at 50 ppm [1] | mortality at 1.6 ppm [2] | mortality at 1 ppm [3] | mortality at 1 ppm [4, 7] | mortality at 3.25 ppm [5]
100%: mortality at 3.125 ppm [2] | mortality at 6.25 ppm [2] | mortality at 12.5 ppm [2] | mortality at 1 ppm ([4]; in Brassica oleracea, 72 h) | mortality at 1.56 ppm [5] | mortality at 3.125 ppm [5] | mortality at 6.25 ppm [5] | Mortality (%) [6] | mortality at 0.2 ppm [6] | mortality at 1 ppm [6] | mortality at 5 ppm [6]
94.3%: mortality at 1.56 ppm [2]
80%: mortality at 0.333 ppm ([4]; in Brassica oleracea, 72 h)

CCC(=O)N(C(=O)c1ccc(C2=NOC(c3cc(Cl)c(F)c(Cl)c3)(C(F)(F)F)C2)cc1C)C1CCS(=O)(=O)C1 (stereo not shown) [Compound I-10, N-propionyl-4-(5-(3,5-dichloro-4-fluorophenyl)-5-(trifluoromethyl)-4,5-dihydroisoxazol-3-yl)-N-(1,1-dioxotetrahydrothiophen-3-yl)-2-methylbenzamide]
92%: mortality at 1.56 ppm [5]
> 90%: mortality at 1.6 ppm [2] | mortality at 1 ppm [3] | mortality at 1 ppm [4, 7] | mortality at 3.25 ppm [5]
97.2%: mortality at 1.56 ppm [2]
100%: mortality at 3.125 ppm [2] | mortality at 6.25 ppm [2] | mortality at 12.5 ppm [2] | mortality at 3.125 ppm [5] | mortality at 6.25 ppm [5]

Cc1cc(C2=NOC(c3cc(Cl)c(F)c(Cl)c3)(C(F)(F)F)C2)ccc1C(=O)N[C@@H]1CCS(=O)(=O)C1 (stereo partly drawn) [Compound I-14, 4-(5-(3,5-dichloro-4-fluorophenyl)-5-(trifluoromethyl)-4,5-dihydroisoxazol-3-yl)-N—((R)-1,1-dioxotetrahydrothiophen-3-yl)-2-methylbenzamide]
100%: mortality at 1.56 ppm [2] | mortality at 3.125 ppm [2] | mortality at 6.25 ppm [2] | mortality at 12.5 ppm [2]
> 90%: mortality at 50 ppm [1] | mortality at 1.6 ppm [2] | mortality at 1 ppm [3] | mortality at 1 ppm [4, 7] | mortality at 3.25 ppm [5]

Cc1cc(C2=NO[C@@](c3cc(Cl)c(F)c(Cl)c3)(C(F)(F)F)C2)ccc1C(=O)NC1CCS(=O)(=O)C1 (stereo partly drawn) [Compound I-17, 4-((S)-5-(3,5-dichloro-4-fluorophenyl)-5-(trifluoromethyl)-4,5-dihydroisoxazol-3-yl)-N-(1,1-dioxotetrahydrothiophen-3-yl)-2-methylbenzamide]
100%: mortality at 1.56 ppm [2] | mortality at 3.125 ppm [2] | mortality at 6.25 ppm [2] | mortality at 12.5 ppm [2]
> 90%: mortality at 50 ppm [1] | mortality at 1.6 ppm [2] | mortality at 1 ppm [4, 7] | mortality at 3.25 ppm [5]

Cc1cc(C2=NOC(c3cc(C(F)(F)F)cc(C(F)(F)F)c3)(C(F)(F)F)C2)ccc1C(=O)NC1CCS(=O)(=O)C1 (stereo not shown) [Compound I-25, 4-(5-(3,5-bis(trifluoromethyl)phenyl)-5-(trifluoromethyl ester)-4,5-dihydroisoxazol-3-yl)-N-(1,1-dioxotetrahydrothiophen-3-yl)-2-methylbenzamide]
99.3%: mortality at 3.125 ppm [2]
100%: mortality at 6.25 ppm [2] | mortality at 12.5 ppm [2] | mortality at 1 ppm ([4]; in Brassica oleracea, 72 h) | mortality at 1.56 ppm [5] | mortality at 3.125 ppm [5] | mortality at 6.25 ppm [5] | Mortality (%) [6] | mortality at 0.2 ppm [6] | mortality at 1 ppm [6] | mortality at 5 ppm [6]
65%: mortality at 0.333 ppm ([4]; in Brassica oleracea, 72 h)
> 90%: mortality at 50 ppm [1] | mortality at 1.6 ppm [2] | mortality at 1 ppm [3] | mortality at 1 ppm [4, 7] | mortality at 3.25 ppm [5]
90.3%: mortality at 1.56 ppm [2]

CO/N=C/NC(=O)c1ccc(C2=NOC(c3cc(Cl)cc(Cl)c3)(C(F)(F)F)C2)cc1C (stereo not shown) [Fluxametamide, 4-[5-(3,5-dichlorophenyl)-4,5-dihydro-5-(trifluoromethyl)-3-isoxazolyl]-N-[(methoxyamino)methylene]-2-methylbenzamide, reference compound]
81.5%: mortality at 6.25 ppm [2]
0%: mortality at 1.56 ppm [2] | mortality at 0.333 ppm ([4]; in Brassica oleracea, 72 h) | mortality at 1.56 ppm [5] | mortality at 3.125 ppm [5] | mortality at 6.25 ppm [5]
93.3%: mortality at 1 ppm [6]
25.6%: mortality at 3.125 ppm [2]
3.33%: mortality at 0.2 ppm [6]
5%: mortality at 1 ppm ([4]; in Brassica oleracea, 72 h)
100%: mortality at 5 ppm [6]
96.8%: mortality at 12.5 ppm [2]
